Experimental data published in patent publication US7820672B2, “Indolylmaleimide derivatives” (Novartis AG, priority 2003, dated 2010).
pIC50: −log10 of the molar value.

Key:
[1] = target: T1, Human recombinant PKCε (Homo sapiens, UniProt Q02156); assay: Protein Kinase Cε assay; assay type: biochemical; conditions: read-out: IC50 in Protein Kinase Cε assay (sentence prints PKCδ)
T1 construct: purchased Oxford Biomedical Research
T1 sequence (Q02156 1-737): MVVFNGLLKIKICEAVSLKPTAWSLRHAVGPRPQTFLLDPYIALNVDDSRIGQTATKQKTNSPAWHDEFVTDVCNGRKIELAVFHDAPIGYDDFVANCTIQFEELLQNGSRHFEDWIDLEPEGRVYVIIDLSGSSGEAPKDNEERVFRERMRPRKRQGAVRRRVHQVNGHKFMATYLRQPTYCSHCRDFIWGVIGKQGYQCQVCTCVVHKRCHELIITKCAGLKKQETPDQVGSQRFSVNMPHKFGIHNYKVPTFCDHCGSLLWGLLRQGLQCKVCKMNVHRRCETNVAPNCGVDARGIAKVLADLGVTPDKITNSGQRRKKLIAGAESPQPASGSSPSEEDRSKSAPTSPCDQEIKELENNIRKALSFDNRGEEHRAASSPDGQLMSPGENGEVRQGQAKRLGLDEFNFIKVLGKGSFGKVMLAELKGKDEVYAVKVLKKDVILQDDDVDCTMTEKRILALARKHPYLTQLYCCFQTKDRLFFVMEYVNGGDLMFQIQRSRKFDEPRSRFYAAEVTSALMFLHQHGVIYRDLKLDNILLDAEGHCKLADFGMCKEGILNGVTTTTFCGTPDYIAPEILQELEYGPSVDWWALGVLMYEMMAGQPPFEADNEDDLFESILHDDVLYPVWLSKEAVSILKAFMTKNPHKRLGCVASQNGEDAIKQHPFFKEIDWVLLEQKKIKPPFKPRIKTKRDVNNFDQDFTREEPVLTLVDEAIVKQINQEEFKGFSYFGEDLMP
Description: (§1) The compounds of formula I are tested for their activity on different PKC isoforms according to a published method (D. Geiges et al. Biochem. Pharmacol. 1997; 53:865-875) The assay is performed in a 96-well polypropylene microtiterplate (Costar 3794) that has been previously siliconized with Sigmacote (Sigma SL-2). The reaction mixture (50 μl) contains 10 μl of the relevant PKC isozyme together with 25 μl of the test compound and 15 μl of a mix solution that contains 200 μg/ml protamine sulfate, 10 mM Mg(NO3)2, 10 μM ATP (Boehringer 519987) and 3750 Bq of ^33P-ATP (Hartmann Analytic SFC301, 110 TBq/mmol) in 20 mM Tris-buffer pH 7.4+0.1% BSA. Incubation is performed for 15 min at 32° C. in a microtiterplate shaking incubator (Biolabo Scientific Instruments). Reaction is stopped by adding 10 μl of 0.5 M Na2EDTA, pH 7.4. 50 μl of mixture are pipetted onto a pre-wetted phosphocellulose paper (Whatmann 3698-915) under gentle pressure. Non-incorporated ATP is washed away with 100 μl bi-dist H2O. The paper is washed twice in 0.5% H3PO4 for 15 min followed by 5 min in EtOH. Thereafter the paper is dryed and placed in an omnifilter (Packard 6005219), and overlayed with 10 μl/well of Microscint-O (Packard 6013611) before counting in a Topcount radioactivity counter (Packard). […] IC50 value are calculated from the graph by sigmoidal curve fitting. […]

[2] = target: GSK-3β (Homo sapiens, UniProt P49841); assay: Inhibition of GSK-3β; assay type: biochemical
Chain of GSK-3β (P49841 whole entry, species assumed): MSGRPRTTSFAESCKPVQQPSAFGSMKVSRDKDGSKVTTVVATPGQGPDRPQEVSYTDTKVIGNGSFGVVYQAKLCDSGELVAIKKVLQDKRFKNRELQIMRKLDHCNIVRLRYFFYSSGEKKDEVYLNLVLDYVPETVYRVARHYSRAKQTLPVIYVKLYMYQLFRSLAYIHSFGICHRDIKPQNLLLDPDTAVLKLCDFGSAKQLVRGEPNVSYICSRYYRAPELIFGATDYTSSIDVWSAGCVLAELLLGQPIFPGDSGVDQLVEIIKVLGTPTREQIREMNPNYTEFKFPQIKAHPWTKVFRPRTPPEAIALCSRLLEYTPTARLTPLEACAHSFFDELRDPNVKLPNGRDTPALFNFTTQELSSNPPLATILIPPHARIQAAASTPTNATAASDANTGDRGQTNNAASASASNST
Description: The GSK-3β bidding assay is performed in 50 μl reactions in 96 well polypropylene plate, each reaction containing 20 mM magnesium chloride, 40 μM ATP, 2 mM DTT, 88.5 μM biotinylated and phosphorylated CREB-peptide substrate (biotin-KRREILSRRPS(PO4)YR—OH; Q. M. Wang et al., J. Biol. Chem. 269, 14566-14574, 1994), [γ-^33P]ATP (1 μCi) and 2 μl of the compound to be tested in DMSO (various concentrations). 15 μl of GSK-3β (various concentrations) is added and the mixture is incubated at 30° C. for 1 hour. The reaction is stopped by transferring 25 μl of the mixture to a phosphocellulose plate containing 130 μl of 1.85% phosphoric acid. The free radionucleotides in the membrane are washed off under vacuum with 1.85% phosphoric acid (5 times). After the last wash, the plate is transferred to an adaptor plate and 50 μl of scintillation cocktail (Microscint-20, Packard, cat. # 20-133) is added to each well and the amount of radioactivity is counted in a top counter. Compounds of formula I are active in this assay.

[3] = target: T2, Human recombinant PKCβ1 (Homo sapiens, UniProt P05771); assay: Protein Kinase Cβ1 assay; assay type: biochemical
T2 construct: purchased Oxford Biomedical Research
T2 sequence (P05771 whole entry): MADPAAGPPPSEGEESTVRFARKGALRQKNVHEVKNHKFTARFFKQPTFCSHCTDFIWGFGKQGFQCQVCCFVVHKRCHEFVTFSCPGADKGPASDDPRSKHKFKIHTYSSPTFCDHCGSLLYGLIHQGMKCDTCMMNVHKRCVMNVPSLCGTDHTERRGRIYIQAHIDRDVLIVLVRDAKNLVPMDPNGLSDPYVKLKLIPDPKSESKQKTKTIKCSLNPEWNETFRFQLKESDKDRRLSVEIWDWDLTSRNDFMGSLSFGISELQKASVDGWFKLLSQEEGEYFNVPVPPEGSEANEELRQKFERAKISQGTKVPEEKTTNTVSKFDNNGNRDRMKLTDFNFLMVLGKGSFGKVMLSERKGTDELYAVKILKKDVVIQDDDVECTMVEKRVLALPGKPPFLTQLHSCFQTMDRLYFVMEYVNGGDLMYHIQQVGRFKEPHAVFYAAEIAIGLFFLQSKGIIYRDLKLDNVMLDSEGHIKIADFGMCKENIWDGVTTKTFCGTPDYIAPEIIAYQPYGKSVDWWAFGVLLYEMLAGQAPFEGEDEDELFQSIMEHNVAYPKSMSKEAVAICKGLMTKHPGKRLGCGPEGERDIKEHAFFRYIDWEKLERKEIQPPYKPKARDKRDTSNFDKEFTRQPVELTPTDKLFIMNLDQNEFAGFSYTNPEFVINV
Description: (§2) The compounds of formula I are tested for their activity on different PKC isoforms according to a published method (D. Geiges et al. Biochem. Pharmacol. 1997; 53:865-875) The assay is performed in a 96-well polypropylene microtiterplate (Costar 3794) that has been previously siliconized with Sigmacote (Sigma SL-2). The reaction mixture (50 μl) contains 10 μl of the relevant PKC isozyme together with 25 μl of the test compound and 15 μl of a mix solution that contains 200 μg/ml protamine sulfate, 10 mM Mg(NO3)2, 10 μM ATP (Boehringer 519987) and 3750 Bq of ^33P-ATP (Hartmann Analytic SFC301, 110 TBq/mmol) in 20 mM Tris-buffer pH 7.4+0.1% BSA. Incubation is performed for 15 min at 32° C. in a microtiterplate shaking incubator (Biolabo Scientific Instruments). Reaction is stopped by adding 10 μl of 0.5 M Na2EDTA, pH 7.4. 50 μl of mixture are pipetted onto a pre-wetted phosphocellulose paper (Whatmann 3698-915) under gentle pressure. Non-incorporated ATP is washed away with 100 μl bi-dist H2O. The paper is washed twice in 0.5% H3PO4 for 15 min followed by 5 min in EtOH. Thereafter the paper is dryed and placed in an omnifilter (Packard 6005219), and overlayed with 10 μl/well of Microscint-O (Packard 6013611) before counting in a Topcount radioactivity counter (Packard). IC50 measurement is performed on a routine basis by incubating a serial dilution of inhibitor at concentrations ranging between 1-1000 μM according to the method described above. IC50 value are calculated from the graph by sigmoidal curve fitting.
Human recombinant PKCβ1 was obtained from Oxford Biomedical Research and is used under the assay conditions as described under Section A.1 above. In this assay, compounds of formula I inhibit PKCβ1 with an IC50≦1 μM.

[4] = target: T3, Human recombinant PKCα (Homo sapiens, UniProt P17252); assay: Protein Kinase Cα assay; assay type: biochemical
T3 construct: purchased Oxford Biomedical Research
Description: as §2
Human recombinant PKCα was obtained from Oxford Biomedical Research and is used under the assay conditions as described under Section A.1 above. In this assay, compounds of formula I inhibit PKCα with an IC50≦1 μM.

[5] = target: Human recombinant PKCθ (Homo sapiens, UniProt Q04759); assay: Protein Kinase C θ assay; assay type: biochemical
Chain of Human recombinant PKCθ (Q04759 whole entry): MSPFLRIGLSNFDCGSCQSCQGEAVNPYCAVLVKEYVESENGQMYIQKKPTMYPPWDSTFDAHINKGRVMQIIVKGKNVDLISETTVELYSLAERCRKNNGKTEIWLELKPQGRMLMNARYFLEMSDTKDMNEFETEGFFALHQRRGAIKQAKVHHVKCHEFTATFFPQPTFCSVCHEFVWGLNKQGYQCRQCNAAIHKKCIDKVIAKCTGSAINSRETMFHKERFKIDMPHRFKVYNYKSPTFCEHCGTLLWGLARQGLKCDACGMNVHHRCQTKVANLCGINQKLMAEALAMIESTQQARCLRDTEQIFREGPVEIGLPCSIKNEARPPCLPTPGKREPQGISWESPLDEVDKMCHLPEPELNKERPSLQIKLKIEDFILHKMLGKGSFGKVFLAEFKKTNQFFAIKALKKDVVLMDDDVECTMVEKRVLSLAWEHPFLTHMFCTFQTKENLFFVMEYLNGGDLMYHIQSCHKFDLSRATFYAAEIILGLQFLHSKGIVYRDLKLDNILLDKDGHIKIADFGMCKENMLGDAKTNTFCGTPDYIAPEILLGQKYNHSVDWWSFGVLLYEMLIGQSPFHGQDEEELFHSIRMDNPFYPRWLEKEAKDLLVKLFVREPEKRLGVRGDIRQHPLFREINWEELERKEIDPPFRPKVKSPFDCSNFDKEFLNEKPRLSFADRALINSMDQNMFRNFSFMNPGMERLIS
Description: as §2
Human recombinant PKCθ is used under the assay conditions as described above. In this assay, compounds of formula I inhibit PKC θ with an IC50≦1 μM.

[6] = tested on: Jurkat cells transfected with a human interleukin-2 promoter/reporter gene construct; assay: CD28 costimulation assay (IL-2 promoter/luciferase reporter); assay type: cell-based; conditions: stimulated Jurkat cells, luciferase reporter
Description: The assay is performed with Jurkat cells transfected with a human interleukin-2 promoter/reporter gene construct as described by Baumann G et al. in Transplant Proc. 1992; 24:43-8, the β-galactosidase reporter gene being replaced by the luciferase gene (de Wet J., et al., Mol. Cell Biol. 1987, 7(2), 725-737). Cells are stimulated by solid phase-coupled antibodies or phorbol myristate acetate (PMA) and the Ca^++ ionophore ionomycin as follows. For antibody-mediated stimulation Microlite TM1 microtiter plates (Dynatech) are coated with 3 μg/ml goat anti-mouse IgG Fc antibodies (Jackson) in 55 μl phosphate-buffered saline (PBS) per well for three hours at RT. Plates are blocked after removing the antibodies by incubation with 2% bovine serum albumin (BSA) in PBS (300 μl per well) for 2 hours at RT. After washing three times with 300 μl PBS per well, 10 ng/ml anti-T cell receptor antibodies (WT31, Becton & Dickinson) and 300 ng/ml anti-CD28 antibodies (15E8) in 50 μl 2% BSA/PBS are added as stimulating antibodies and incubated overnight at 4° C. Finally the plates are washed three times with 300 μl PBS per well. Seven three-fold serial dilutions of test compounds in duplicates in assay medium (RPMI 1640/10% fetal calf serum (FCS) containing 50 μM 2-mercaptoethanol, 100 units/ml penicillin and 100 μg/ml streptomycin) are prepared in separate plates, mixed with transfected Jurkat cells (clone K22 290_H23) and incubated for 30 minutes at 37° C. in 5% CO2. […] After incubation for 5.5 hours at 37° C. in 5% CO2, the level of luciferase is determined by bioluminescence measurement. […] Luciferase activity is assessed with a bioluminescence reader (Labsystem, Helsinki, Finland) after automatic addition of 50 μl per well luciferase reaction buffer containing 20 mM Tricine, 1.07 mM (MgCO3)4Mg(OH)2×5H2O, 2.67 mM MgSO4, 0.1 mM EDTA, 33.3 mM DTT, 270 μM coenzyme A, 470 μM luciferin (Chemie Brunschwig AG), 530 μM ATP, pH 7.8. […] The inhibition obtained in the presence of a test compound is calculated as percent inhibition of the high control. […]

[7] = target: T4, Human recombinant PKCη (Homo sapiens, UniProt P24723); assay: Protein Kinase Cη assay; assay type: biochemical
T4 construct: purchased PanVera
T4 sequence (P24723 whole entry): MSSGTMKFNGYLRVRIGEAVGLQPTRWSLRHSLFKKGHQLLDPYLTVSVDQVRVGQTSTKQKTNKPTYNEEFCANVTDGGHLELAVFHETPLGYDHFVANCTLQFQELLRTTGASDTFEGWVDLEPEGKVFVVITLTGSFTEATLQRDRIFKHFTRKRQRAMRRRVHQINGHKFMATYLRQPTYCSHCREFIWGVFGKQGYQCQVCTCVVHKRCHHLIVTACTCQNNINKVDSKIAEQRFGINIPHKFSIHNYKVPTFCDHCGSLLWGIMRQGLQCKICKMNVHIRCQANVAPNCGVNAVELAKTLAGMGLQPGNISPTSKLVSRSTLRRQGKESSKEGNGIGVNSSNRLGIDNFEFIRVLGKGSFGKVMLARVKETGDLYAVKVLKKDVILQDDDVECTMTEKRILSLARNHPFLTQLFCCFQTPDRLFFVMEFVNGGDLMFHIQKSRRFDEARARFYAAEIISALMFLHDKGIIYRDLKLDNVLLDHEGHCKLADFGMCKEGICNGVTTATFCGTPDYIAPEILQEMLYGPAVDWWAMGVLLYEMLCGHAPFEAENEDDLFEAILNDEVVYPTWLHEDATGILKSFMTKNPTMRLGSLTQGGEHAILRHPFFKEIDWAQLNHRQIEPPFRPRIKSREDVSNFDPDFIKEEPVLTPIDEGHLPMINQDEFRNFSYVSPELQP
Description: as §1

[8] = tested on: lymph node enlargement; assay: Graft v. host model; assay type: in vivo, rat; conditions: days 0-3, lymph nodes removed day 7
Description: Spleen cells (2×10^7) from Wistar/F rats are injected subcutaneously into the right hind footpad of (Wistar/F×Fischer 344)F1 hybrid rats. The left footpad is left untreated. The animals are treated with the test compounds on 4 consecutive days (0-3). The popliteal lymph nodes are removed on day 7, and the weight differences between two corresponding lymph nodes are determined. The results are expressed as the inhibition of lymph node enlargement (given in percent) comparing the lymph node weight differences in the experimental groups to the weight difference between the corresponding lymph nodes from a group of animals left untreated with a test compound. In this assay, an inhibition of 100% is obtained with compound of Example 1 or 10 when administered at a dose of 30 or 10 mg/kg bid, respectively.

[9] = target: T5, Human recombinant PKCδ (Homo sapiens, UniProt Q05655); assay: Protein Kinase Cδ assay; assay type: biochemical
T5 construct: purchased Oxford Biomedical Research
T5 sequence (Q05655 whole entry): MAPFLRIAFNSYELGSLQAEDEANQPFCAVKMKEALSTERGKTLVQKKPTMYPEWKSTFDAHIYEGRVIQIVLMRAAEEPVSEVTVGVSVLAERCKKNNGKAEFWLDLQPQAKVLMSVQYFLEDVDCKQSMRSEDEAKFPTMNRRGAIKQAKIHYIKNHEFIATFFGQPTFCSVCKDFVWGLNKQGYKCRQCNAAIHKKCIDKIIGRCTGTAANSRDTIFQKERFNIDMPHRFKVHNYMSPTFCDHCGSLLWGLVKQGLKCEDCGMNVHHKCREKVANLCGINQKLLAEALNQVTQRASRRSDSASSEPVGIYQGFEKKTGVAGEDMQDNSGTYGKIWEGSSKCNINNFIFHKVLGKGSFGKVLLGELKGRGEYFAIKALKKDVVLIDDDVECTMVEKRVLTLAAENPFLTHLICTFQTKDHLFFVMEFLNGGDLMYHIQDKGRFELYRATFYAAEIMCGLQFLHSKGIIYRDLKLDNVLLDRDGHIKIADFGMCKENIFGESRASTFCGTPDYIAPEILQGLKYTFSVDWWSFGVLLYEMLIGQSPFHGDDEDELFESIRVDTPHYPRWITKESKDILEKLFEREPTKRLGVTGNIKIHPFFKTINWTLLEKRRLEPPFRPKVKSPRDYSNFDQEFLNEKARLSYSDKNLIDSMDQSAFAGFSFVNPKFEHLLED
Description: as §1

[10] = tested on: spleen cells from CBA and BALB/c mice; assay: Allogeneic mixed lymphocyte reaction (MLR); assay type: cell-based; conditions: Mus musculus, two-way MLR, 3H-thymidine incorporation
Description: The two-way MLR is performed according to standard procedures (J. Immunol. Methods, 1973, 2, 279 and Meo T. et al., Immunological Methods, New York, Academic Press, 1979, 227-39). Briefly, spleen cells from CBA and BALB/c mice (1.6×10^5 cells from each strain per well in flat bottom tissue culture microtiter plates, 3.2×10^5 in total) are incubated in RPMI medium containing 10% FCS, 100 U/ml penicillin, 100 μg/ml streptomycin (Gibco BRL, Basel, Switzerland), 50 μM 2-mercaptoethanol (Fluka, Buchs, Switzerland) and serially diluted compounds. Seven three-fold dilution steps in duplicates per test compound are performed. After four days of incubation 1 μCi ^3H-thymidine is added. Cells are harvested after an additional five-hour incubation period, and incorporated ^3H-thymidine is determined according to standard procedures. Background values (low control) of the MLR are the proliferation of BALB/c cells alone. Low controls are subtracted from all values. High controls without any sample are taken as 100% proliferation. Percent inhibition by the samples is calculated, and the concentrations required for 50% inhibition (IC50 values) are determined.

Structure (SMILES)	pIC50 [1]	pIC50 [2]	pIC50 [3]	pIC50 [4]	pIC50 [5]	pIC50 [6]	pIC50 [7]	inhibition of lymph node enlargement ([8]; 30 mg/kg bid) [%]	pIC50 [9]	pIC50 [10]	inhibition of lymph node enlargement ([8]; 10 mg/kg bid) [%]
CN1CCN(c2ccc(C(F)(F)F)c(C3=C(c4c[nH]c5ccccc45)C(=O)NC3=O)n2)CC1 [Example 1, 3-(1H-Indol-3-yl)-4-[6-(4-methyl-piperazin-1-yl)-3-tifluoromethyl-pyridin-2-yl]-pyrrole-2,5-dione]	7.83	7.74	8.23	8.54	8.27	7.89	7.82	100	7.68	7.54	–
CN1CCN(c2ccc(Cl)c(C3=C(c4c[nH]c5ccccc45)C(=O)NC3=O)n2)CC1 [Example 10]	–	–	–	–	8.24	–	–	–	–	–	100
CN(C)Cc1cc2c(C3=C(c4cn(C)c5ccccc45)C(=O)NC3=O)cccc2[nH]1 [Example 39]	–	–	7.88	8.20	–	7.33	–	–	–	6.55	–
Cc1cccc2c(C3=C(c4c(Cl)ccc5[nH]c(CN(C)C)cc45)C(=O)NC3=O)c[nH]c12 [Example 41]	8.12	7.60	7.83	8.12	8.03	7.55	7.82	–	7.53	7.49	–
